Measurements taken from ChEMBL document CHEMBL4507297, “Data for DCP probe PF-04457845” (2021).

Legend:
Cannabinoid receptor 1 = Cannabinoid receptor 1 (Homo sapiens, UniProt P21554); test: CB1 (h) CEREP ligand profiling
[1] = molecular target: Glutamate receptor ionotropic, kainate 2 (Homo sapiens) (UniProt Q13002); test: Kainate CEREP ligand profiling; settings: Compound concentration 10.0 uM
[2] = molecular target: T1, 5-hydroxytryptamine receptor 2C (Homo sapiens) (UniProt P28335); test: 5-HT2C (h) (agonist site) CEREP ligand profiling; settings: Compound concentration 10.0 uM
T1 sequence (whole entry): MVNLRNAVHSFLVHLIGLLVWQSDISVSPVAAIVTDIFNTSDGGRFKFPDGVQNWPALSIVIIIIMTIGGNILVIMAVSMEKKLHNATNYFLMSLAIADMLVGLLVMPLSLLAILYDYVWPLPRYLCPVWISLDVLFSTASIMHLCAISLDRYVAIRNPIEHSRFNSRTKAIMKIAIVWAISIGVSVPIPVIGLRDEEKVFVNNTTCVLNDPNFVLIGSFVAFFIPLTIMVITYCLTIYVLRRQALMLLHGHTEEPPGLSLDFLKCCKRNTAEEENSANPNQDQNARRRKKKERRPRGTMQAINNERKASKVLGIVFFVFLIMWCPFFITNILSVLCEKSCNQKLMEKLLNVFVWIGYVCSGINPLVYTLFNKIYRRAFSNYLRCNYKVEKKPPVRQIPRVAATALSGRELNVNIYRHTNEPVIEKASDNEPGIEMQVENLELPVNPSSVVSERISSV

[3] = molecular target: T2, 5-hydroxytryptamine receptor 3A (Homo sapiens) (UniProt P46098); test: 5-HT3 (h) CEREP ligand profiling; settings: Compound concentration 10.0 uM
T2 sequence (whole entry): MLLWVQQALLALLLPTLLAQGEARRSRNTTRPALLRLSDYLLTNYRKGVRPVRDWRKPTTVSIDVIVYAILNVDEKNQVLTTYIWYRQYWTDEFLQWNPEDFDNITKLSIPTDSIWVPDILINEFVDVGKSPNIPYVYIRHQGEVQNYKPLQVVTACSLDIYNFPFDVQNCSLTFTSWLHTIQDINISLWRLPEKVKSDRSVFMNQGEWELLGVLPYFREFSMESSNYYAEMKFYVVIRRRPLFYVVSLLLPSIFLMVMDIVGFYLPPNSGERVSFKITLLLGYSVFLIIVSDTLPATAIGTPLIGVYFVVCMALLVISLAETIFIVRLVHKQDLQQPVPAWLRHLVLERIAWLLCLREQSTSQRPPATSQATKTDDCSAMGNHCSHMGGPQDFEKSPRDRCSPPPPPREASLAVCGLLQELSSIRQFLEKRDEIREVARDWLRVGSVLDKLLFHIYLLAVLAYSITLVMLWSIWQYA

Sequence of Cannabinoid receptor 1 (P21554 whole entry): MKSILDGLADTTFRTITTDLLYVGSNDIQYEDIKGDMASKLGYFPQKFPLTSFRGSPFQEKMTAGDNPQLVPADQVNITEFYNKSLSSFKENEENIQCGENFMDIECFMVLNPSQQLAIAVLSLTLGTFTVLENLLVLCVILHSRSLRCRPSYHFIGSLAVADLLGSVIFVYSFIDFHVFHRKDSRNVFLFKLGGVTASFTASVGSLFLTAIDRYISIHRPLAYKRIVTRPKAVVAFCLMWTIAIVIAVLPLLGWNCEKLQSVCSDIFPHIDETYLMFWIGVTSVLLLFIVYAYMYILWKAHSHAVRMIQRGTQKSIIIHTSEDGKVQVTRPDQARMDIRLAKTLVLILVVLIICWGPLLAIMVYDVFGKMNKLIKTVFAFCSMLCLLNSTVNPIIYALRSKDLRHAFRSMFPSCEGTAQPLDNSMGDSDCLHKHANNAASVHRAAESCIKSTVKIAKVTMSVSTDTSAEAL
Sequence of Glutamate receptor ionotropic, kainate 2 (Homo sapiens) (Q13002 whole entry): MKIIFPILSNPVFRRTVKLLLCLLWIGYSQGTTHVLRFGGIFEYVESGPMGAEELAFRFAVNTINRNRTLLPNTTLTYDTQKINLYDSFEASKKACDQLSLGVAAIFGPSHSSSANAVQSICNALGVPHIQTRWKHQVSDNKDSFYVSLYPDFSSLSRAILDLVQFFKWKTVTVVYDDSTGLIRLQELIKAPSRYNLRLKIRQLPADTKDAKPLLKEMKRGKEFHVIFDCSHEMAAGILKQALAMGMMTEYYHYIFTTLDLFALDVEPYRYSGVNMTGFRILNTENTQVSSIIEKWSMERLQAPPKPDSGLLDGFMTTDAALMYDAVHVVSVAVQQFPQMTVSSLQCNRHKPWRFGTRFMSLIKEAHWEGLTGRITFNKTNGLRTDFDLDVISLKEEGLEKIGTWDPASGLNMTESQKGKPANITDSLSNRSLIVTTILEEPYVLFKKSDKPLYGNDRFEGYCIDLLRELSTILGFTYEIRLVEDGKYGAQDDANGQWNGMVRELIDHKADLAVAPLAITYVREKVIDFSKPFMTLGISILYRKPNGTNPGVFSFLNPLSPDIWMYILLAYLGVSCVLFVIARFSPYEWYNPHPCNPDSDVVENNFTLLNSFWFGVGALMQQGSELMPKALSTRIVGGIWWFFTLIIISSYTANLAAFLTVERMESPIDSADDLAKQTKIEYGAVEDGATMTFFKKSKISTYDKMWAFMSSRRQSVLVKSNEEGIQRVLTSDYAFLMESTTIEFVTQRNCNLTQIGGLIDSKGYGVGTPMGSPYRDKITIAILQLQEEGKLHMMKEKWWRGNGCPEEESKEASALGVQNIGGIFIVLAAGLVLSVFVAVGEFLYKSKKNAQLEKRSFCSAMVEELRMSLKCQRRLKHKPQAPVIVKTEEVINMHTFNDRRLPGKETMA

O=C(Nc1cccnn1)N1CCC(=Cc2cccc(Oc3ccc(C(F)(F)F)cn3)c2)CC1
Ki (Cannabinoid receptor 1): 14 µM
inhibition (Cannabinoid receptor 1; Compound concentration 10.0 uM): 55%
inhibition [1]: 2%
inhibition [2]: -3%
inhibition [3]: -8%
